Measured values reported in patent US20060241168A1, “Antidepressant” (priority 2002, published 2006).

Tested on: Akt
Test: Akt phosphorylation in rat hippocampus glia mixed culturing system (immunoprecipitation, Western blotting)
Format: cell-based
Conditions: rat hippocampus mixed culture; added at 300 nM or 100 nM; after one day and three days
Method: The hippocampus was removed from a 3 day-old rat and the cells were dispersed in a nerve dispersing solution. After the number of the cells was counted, the cells were suspended in a DMEM/F-12 medium containing 10% FCS (Embryo Max) and was then seeded on a 6-well plate coated with type I collagen at a density of 3×10^5 cells/cm^2. After cultured for 4 days, the medium was replaced with a N2 supplement-containing medium. Compound (I) (Compound 17a was used; hereinafter referred to Compound A) was added to a well at 300 nM or 100 nM, and IGF-1 was added to a well at 100 ng/mL. One day or three days after the addition, the cells were collected using Lysis Buffer containing protease inhibitor cocktail. Each cell suspension was centrifuged at 20000 rpm for 30 minutes and the supernatant was collected. An anti-5G3 Akt antibody was added to the supernatant to immunoprecipitate intracellular Akt. The resulting precipitate was subjected to SDS-PAGE using a 5-20% polyacrylamide gel and then to Western blotting. An anti-Phospho Akt antibody as a primary antibody and an HRP-linked anti-Rabbit antibody as a secondary antibody were used to detect the bands of phosphorylated Akt (Ser473 and Thr308). In order to detect the total Akt, the PVDF membrane was immersed in a reprobe buffer and permeated at 55° C. for 20 minutes to peel the antibodies. […]

## COc1cc2c(cc1OC)CN(c1c(C)c(C)c3c(c1C)[C@@H](c1ccc(C)cc1)C(C)(C)O3)C2 [Compound A]
  phosphorylation of Akt at Ser473: promoted phosphorylation
  phosphorylation of Akt at Thr308: promoted phosphorylation
